Source: ChEMBL document CHEMBL1201862, “PubChem BioAssay data set” (2004)
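Dose response: 5 concentrations. Exposure: 48 h. Format: 96-well plates. Endpoint: linear interpolation; highest concentration if not reached. GI50 is the concentration that inhibits growth by half.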 Activity calls are given as the source filed them. No stated cut-off is given here; in the data, active = GI50 up to about 1.1 µM and inactive = higher.

How the values were obtained:
Experiment in all cases: DTP human tumour cell line panel, 48 h
786-0 = tested on: 786-0
A498 = tested on: A498
EKVX = tested on: EKVX
HOP-62 = tested on: HOP-62
Hs-578T = tested on: Hs-578T
IGROV-1 = tested on: IGROV-1
LOX IMVI = tested on: LOX IMVI
M14 = tested on: M14
Malme-3M = tested on: Malme-3M
SF-539 = tested on: SF-539
SN12C = tested on: SN12C
TK-10 = tested on: TK-10
U-251 = tested on: U-251
UACC-62 = tested on: UACC-62
DU-145 = tested on: DU-145
HOP-92 = tested on: HOP-92
SF-268 = tested on: SF-268
SK-OV-3 = tested on: SK-OV-3

Compound	GI50 (786-0)	GI50 (A498)	GI50 (EKVX)	GI50 (HOP-62)	GI50 (Hs-578T)	GI50 (IGROV-1)	GI50 (LOX IMVI)	GI50 (M14)	GI50 (Malme-3M)	GI50 (SF-539)	GI50 (SN12C)	GI50 (TK-10)	GI50 (U-251)	GI50 (UACC-62)	GI50 (DU-145)	GI50 (HOP-92)	GI50 (SF-268)	GI50 (SK-OV-3)
C1CCCN(NC2=NCCO2)CC1	> 100 µM (inactive)	> 100 µM (inactive)	> 100 µM (inactive)	> 100 µM (inactive)	> 100 µM (inactive)	> 100 µM (inactive)	> 100 µM (inactive)	> 100 µM (inactive)	> 100 µM (inactive)	> 100 µM (inactive)	> 100 µM (inactive)	> 100 µM (inactive)	> 100 µM (inactive)	> 100 µM (inactive)	–	–	–	–
CC(C)=CCN1c2ccccc2[C@@]2(CC=C(C)C)CCN(C)[C@@H]12 [(+)-DEBROMOFLUSTRAMINE B]	19.2 µM (inactive)	–	21.2 µM (inactive)	19.2 µM (inactive)	22 µM (inactive)	21.6 µM (inactive)	15.1 µM (inactive)	–	17.7 µM (inactive)	24.3 µM (inactive)	27.4 µM (inactive)	35.9 µM (inactive)	18.2 µM (inactive)	15.7 µM (inactive)	45.2 µM (inactive)	32.7 µM (inactive)	46.3 µM (inactive)	24.4 µM (inactive)
Cc1cc(S(=O)(=O)N/C(=N/N)NCCc2ccccc2)c(S)cc1Cl	30.5 µM (inactive)	–	34.8 µM (inactive)	> 10 µM (inactive)	25.5 µM (inactive)	36 µM (inactive)	29.6 µM (inactive)	24.1 µM (inactive)	22 µM (inactive)	24 µM (inactive)	33.5 µM (inactive)	39.4 µM (inactive)	16.6 µM (inactive)	18.1 µM (inactive)	18.5 µM (inactive)	–	28.7 µM (inactive)	23.3 µM (inactive)
CC(C)=Cc1cc(CCC/C(C)=C/Cc2c(O)cc(C)c(C(=O)O)c2O)co1	> 100 µM (inactive)	–	> 100 µM (inactive)	> 100 µM (inactive)	26.2 µM (inactive)	> 100 µM (inactive)	86.9 µM (inactive)	> 100 µM (inactive)	–	> 100 µM (inactive)	> 100 µM (inactive)	> 100 µM (inactive)	> 100 µM (inactive)	> 100 µM (inactive)	> 100 µM (inactive)	> 100 µM (inactive)	> 100 µM (inactive)	–
N#C/C(=N/Nc1[nH]cnc1C(N)=O)C(=O)Nc1ccccc1	22.8 µM (inactive)	–	65.5 µM (inactive)	6.18 µM (inactive)	67.8 µM (inactive)	4.55 µM (inactive)	–	4.99 µM (inactive)	5.48 µM (inactive)	–	4.71 µM (inactive)	18.5 µM (inactive)	> 100 µM (inactive)	9.18 µM (inactive)	6.3 µM (inactive)	–	8.17 µM (inactive)	4.66 µM (inactive)
O=C1C(c2c(O)[nH]c3ccc(F)cc23)=Nc2ccccc21	4.85 µM (inactive)	–	> 100 µM (inactive)	46.2 µM (inactive)	13.6 µM (inactive)	1.03 µM (active)	> 100 µM (inactive)	> 100 µM (inactive)	> 100 µM (inactive)	–	> 100 µM (inactive)	22.1 µM (inactive)	13.3 µM (inactive)	> 100 µM (inactive)	> 100 µM (inactive)	10.9 µM (inactive)	15.1 µM (inactive)	6.24 µM (inactive)
Cc1ccccc1NC(=O)Cc1csc2[n+]1C(=O)/C(=C/c1ccc([N+](=O)[O-])cc1)S2	58.9 µM (inactive)	–	22.7 µM (inactive)	33.5 µM (inactive)	–	25.7 µM (inactive)	38.5 µM (inactive)	32.2 µM (inactive)	–	29 µM (inactive)	43.4 µM (inactive)	19.9 µM (inactive)	29.7 µM (inactive)	–	53.8 µM (inactive)	19.5 µM (inactive)	–	> 100 µM (inactive)
CCCCCCCCCCCCCC[S+](C)C	1.33 µM (inactive)	–	3.01 µM (inactive)	1.67 µM (inactive)	1.65 µM (inactive)	1.12 µM (inactive)	1.79 µM (inactive)	1.83 µM (inactive)	–	1.27 µM (inactive)	1.59 µM (inactive)	1.71 µM (inactive)	1.09 µM (active)	2.22 µM (inactive)	3.8 µM (inactive)	1.18 µM (inactive)	1.51 µM (inactive)	4.02 µM (inactive)
O=C(CC(C(=O)c1ccsc1)c1ccsc1)c1ccsc1 (stereo unspecified)	> 100 µM (inactive)	> 100 µM (inactive)	75.2 µM (inactive)	> 100 µM (inactive)	> 100 µM (inactive)	> 100 µM (inactive)	79.8 µM (inactive)	50.2 µM (inactive)	> 100 µM (inactive)	> 100 µM (inactive)	> 100 µM (inactive)	> 100 µM (inactive)	> 100 µM (inactive)	74.8 µM (inactive)	> 100 µM (inactive)	–	> 100 µM (inactive)	59.4 µM (inactive)
C=CCN1C2Cc3cc(OC)c(OC)cc3C1Cc1cc(OC)c(OC)cc12	> 100 µM (inactive)	> 100 µM (inactive)	> 100 µM (inactive)	> 100 µM (inactive)	–	–	–	> 100 µM (inactive)	> 100 µM (inactive)	–	> 100 µM (inactive)	> 100 µM (inactive)	> 100 µM (inactive)	–	–	–	> 100 µM (inactive)	–
Cc1ccc(-c2nc(-c3cnccn3)n(C3OC(CO)C(O)C(O)C3O)n2)cc1 (stereo unspecified)	> 100 µM (inactive)	–	> 100 µM (inactive)	> 100 µM (inactive)	–	> 100 µM (inactive)	> 100 µM (inactive)	> 100 µM (inactive)	–	> 100 µM (inactive)	> 100 µM (inactive)	> 100 µM (inactive)	> 100 µM (inactive)	> 100 µM (inactive)	> 100 µM (inactive)	> 100 µM (inactive)	> 100 µM (inactive)	–
CCCCc1c(O)nc(Nc2nc3ccccc3[nH]2)[nH]c1=O	> 100 µM (inactive)	> 100 µM (inactive)	> 100 µM (inactive)	> 100 µM (inactive)	23.3 µM (inactive)	> 100 µM (inactive)	> 100 µM (inactive)	> 100 µM (inactive)	22.1 µM (inactive)	> 100 µM (inactive)	> 100 µM (inactive)	> 100 µM (inactive)	69.7 µM (inactive)	> 100 µM (inactive)	> 100 µM (inactive)	–	98.9 µM (inactive)	> 100 µM (inactive)
O=Cc1c(C(=O)O)[nH]c(=O)[nH]c1=O	> 100 µM (inactive)	> 100 µM (inactive)	> 100 µM (inactive)	–	> 100 µM (inactive)	> 100 µM (inactive)	> 100 µM (inactive)	> 100 µM (inactive)	> 100 µM (inactive)	> 100 µM (inactive)	> 100 µM (inactive)	> 100 µM (inactive)	> 100 µM (inactive)	> 100 µM (inactive)	> 100 µM (inactive)	–	> 100 µM (inactive)	> 100 µM (inactive)
CCCCCCCCCCC(C(=O)O)C1(C(=O)O)CCC(=O)O1 (stereo unspecified)	> 100 µM (inactive)	–	> 100 µM (inactive)	> 100 µM (inactive)	> 100 µM (inactive)	> 100 µM (inactive)	> 100 µM (inactive)	> 100 µM (inactive)	–	–	> 100 µM (inactive)	> 100 µM (inactive)	> 100 µM (inactive)	> 100 µM (inactive)	> 100 µM (inactive)	> 100 µM (inactive)	> 100 µM (inactive)	> 100 µM (inactive)
O=[PH]1c2ccccc2Nc2ccccc21	> 100 µM (inactive)	21.7 µM (inactive)	22.4 µM (inactive)	> 100 µM (inactive)	–	> 100 µM (inactive)	> 100 µM (inactive)	> 100 µM (inactive)	80.2 µM (inactive)	> 100 µM (inactive)	> 100 µM (inactive)	> 100 µM (inactive)	> 100 µM (inactive)	> 100 µM (inactive)	98.6 µM (inactive)	> 100 µM (inactive)	> 100 µM (inactive)	> 100 µM (inactive)
CCOC(=O)CCCO	> 100 µM (inactive)	> 100 µM (inactive)	> 100 µM (inactive)	–	–	> 100 µM (inactive)	> 100 µM (inactive)	> 100 µM (inactive)	> 100 µM (inactive)	> 100 µM (inactive)	> 100 µM (inactive)	> 100 µM (inactive)	> 100 µM (inactive)	> 100 µM (inactive)	–	> 100 µM (inactive)	> 100 µM (inactive)	> 100 µM (inactive)
Cc1nc2c(c(N3CCN(C)CC3)n1)Cc1ccccc1-2	68.2 µM (inactive)	–	42.4 µM (inactive)	–	65 µM (inactive)	–	–	50.9 µM (inactive)	40.8 µM (inactive)	84.7 µM (inactive)	–	31.4 µM (inactive)	75.3 µM (inactive)	42.6 µM (inactive)	> 100 µM (inactive)	36.7 µM (inactive)	62.4 µM (inactive)	> 100 µM (inactive)
O=C(/C=C/c1cccs1)c1ccc([N+](=O)[O-])cc1	> 100 µM (inactive)	> 100 µM (inactive)	> 100 µM (inactive)	> 100 µM (inactive)	65.5 µM (inactive)	> 100 µM (inactive)	74.5 µM (inactive)	> 100 µM (inactive)	> 100 µM (inactive)	> 100 µM (inactive)	> 100 µM (inactive)	> 100 µM (inactive)	> 100 µM (inactive)	> 100 µM (inactive)	> 100 µM (inactive)	–	> 100 µM (inactive)	> 100 µM (inactive)
